Assay results as given in publication PMC7156458, “Synthetic biology based construction of biological activity-related library of fungal decalin-containing diterpenoid pyrones” (Nature Communications, 2020).

Target: Aβ42 (Homo sapiens, UniProt P05067)
Assay: Th-T (thioflavin-T) assay of Aβ42 aggregation
Format: biochemical
Settings: for Th-T assay plate reading, mean of three wells (Supplementary Fig. 47): source data, Ab alone and No Ab as controls

Aβ42, sequence (P05067 672-713): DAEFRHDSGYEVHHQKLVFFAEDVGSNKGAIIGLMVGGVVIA

Th-T fluorescence, mean of three wells (Aβ42 aggregation time course, reading M117): 3.821
Th-T fluorescence, mean of three wells (Aβ42 aggregation time course, reading M118): 3.829
Th-T fluorescence, mean of three wells (Aβ42 aggregation time course, reading M119): 3.818
Th-T fluorescence, mean of three wells (Aβ42 aggregation time course, reading M120): 3.827
Th-T fluorescence, mean of three wells (Aβ42 aggregation time course, reading M121): 3.807
Th-T fluorescence, mean of three wells (Aβ42 aggregation time course, reading M122): 3.851
Th-T fluorescence, mean of three wells (Aβ42 aggregation time course, reading M123): 3.84
Th-T fluorescence, mean of three wells (Aβ42 aggregation time course, reading M124): 3.827
Th-T fluorescence, mean of three wells (Aβ42 aggregation time course, reading M125): 3.803
Th-T fluorescence, mean of three wells (Aβ42 aggregation time course, reading M126): 3.803
Th-T fluorescence, mean of three wells (Aβ42 aggregation time course, reading M127): 3.811
Th-T fluorescence, mean of three wells (Aβ42 aggregation time course, reading M128): 3.832
Th-T fluorescence, mean of three wells (Aβ42 aggregation time course, reading M129): 3.806
Th-T fluorescence, mean of three wells (Aβ42 aggregation time course, reading M130): 3.7777
Th-T fluorescence, mean of three wells (Aβ42 aggregation time course, reading M131): 3.7932
Th-T fluorescence, mean of three wells (Aβ42 aggregation time course, reading M132): 3.801
Th-T fluorescence, mean of three wells (Aβ42 aggregation time course, reading M133): 3.762
Th-T fluorescence, mean of three wells (Aβ42 aggregation time course, reading M134): 3.777
Th-T fluorescence, mean of three wells (Aβ42 aggregation time course, reading M135): 3.785
Th-T fluorescence, mean of three wells (Aβ42 aggregation time course, reading M136): 3.777
Th-T fluorescence, mean of three wells (Supplementary Fig. 47, reading M137): 3.7533
Th-T fluorescence, mean of three wells (Supplementary Fig. 47, reading M138): 3.768
Th-T fluorescence, mean of three wells (Supplementary Fig. 47, reading M139): 3.732
Th-T fluorescence, mean of three wells (Supplementary Fig. 47, reading M140): 3.756
Th-T fluorescence, mean of three wells (Supplementary Fig. 47, reading M141): 3.727
Th-T fluorescence, mean of three wells (Supplementary Fig. 47, reading M142): 3.722
Th-T fluorescence, mean of three wells (Supplementary Fig. 47, reading M143): 3.7233
Th-T fluorescence, mean of three wells (Supplementary Fig. 47, reading M144): 3.718
Th-T fluorescence, mean of three wells (Supplementary Fig. 47, reading M145): 3.718
Th-T fluorescence, mean of three wells (Supplementary Fig. 47 source data, measurement M37 of time course): 3.91
Th-T fluorescence, mean of three wells (Supplementary Fig. 47 source data, measurement M38 of time course): 3.88
Th-T fluorescence, mean of three wells (Supplementary Fig. 47 source data, measurement M39 of time course): 3.926
Th-T fluorescence, mean of three wells (Supplementary Fig. 47 source data, measurement M40 of time course): 3.945
Th-T fluorescence, mean of three wells (Supplementary Fig. 47 source data, measurement M41 of time course): 3.951
Th-T fluorescence, mean of three wells (Supplementary Fig. 47 source data, measurement M42 of time course): 3.943
Th-T fluorescence, mean of three wells (Supplementary Fig. 47 source data, measurement M43 of time course): 3.96
Th-T fluorescence, mean of three wells (Supplementary Fig. 47 source data, measurement M44 of time course): 3.975
Th-T fluorescence, mean of three wells (Supplementary Fig. 47 source data, measurement M45 of time course): 3.993
Th-T fluorescence, mean of three wells (Supplementary Fig. 47 source data, measurement M46 of time course): 3.9875
Th-T fluorescence, mean of three wells (Supplementary Fig. 47 source data, measurement M47 of time course): 4.0057
Th-T fluorescence, mean of three wells (Supplementary Fig. 47 source data, measurement M48 of time course): 4.03
Th-T fluorescence, mean of three wells (Supplementary Fig. 47 source data, measurement M49 of time course): 4.026
Th-T fluorescence, mean of three wells (Supplementary Fig. 47 source data, measurement M50 of time course): 3.972
Th-T fluorescence, mean of three wells (Supplementary Fig. 47 source data, measurement M51 of time course): 4.006
Th-T fluorescence, mean of three wells (Supplementary Fig. 47 source data, measurement M52 of time course): 4
Th-T fluorescence, mean of three wells (Supplementary Fig. 47 source data, measurement M53 of time course): 3.995
Th-T fluorescence, mean of three wells (Supplementary Fig. 47 source data, measurement M54 of time course): 4.005
Th-T fluorescence, mean of three wells (Supplementary Fig. 47 source data, measurement M55 of time course): 4.01
Th-T fluorescence, mean of three wells (Supplementary Fig. 47 source data, measurement M56 of time course): 4.026
Th-T assay plate reading, mean of three wells (Supplementary Fig. 47) (measurement M1): 0.1917
Th-T assay plate reading, mean of three wells (Supplementary Fig. 47) (measurement M2): 0.1872
Th-T assay plate reading, mean of three wells (Supplementary Fig. 47) (measurement M3): 0.2017
Th-T assay plate reading, mean of three wells (Supplementary Fig. 47) (measurement M4): 0.2278
Th-T assay plate reading, mean of three wells (Supplementary Fig. 47) (measurement M5): 0.2368
Th-T assay plate reading, mean of three wells (Supplementary Fig. 47) (measurement M6): 0.2919
Th-T assay plate reading, mean of three wells (Supplementary Fig. 47) (measurement M7): 0.3712
Th-T assay plate reading, mean of three wells (Supplementary Fig. 47) (measurement M8): 0.4061
Th-T assay plate reading, mean of three wells (Supplementary Fig. 47) (measurement M9): 0.4563
Th-T assay plate reading, mean of three wells (Supplementary Fig. 47) (measurement M10): 0.5903
Th-T assay plate reading, mean of three wells (Supplementary Fig. 47) (measurement M11): 0.9948
Th-T assay plate reading, mean of three wells (Supplementary Fig. 47) (measurement M12): 1.768
Th-T assay plate reading, mean of three wells (Supplementary Fig. 47) (measurement M13): 2.41
Th-T assay plate reading, mean of three wells (Supplementary Fig. 47) (measurement M14): 2.789
Th-T assay plate reading, mean of three wells (Supplementary Fig. 47) (measurement M15): 2.988
Th-T assay plate reading, mean of three wells (Supplementary Fig. 47) (measurement M16): 3.116
Th-T fluorescence, mean of three wells (reading M17, Supplementary Fig. 47 source data): 3.2228
Th-T fluorescence, mean of three wells (reading M18, Supplementary Fig. 47 source data): 3.274
Th-T fluorescence, mean of three wells (reading M19, Supplementary Fig. 47 source data): 3.356
Th-T fluorescence, mean of three wells (reading M20, Supplementary Fig. 47 source data): 3.42
Th-T fluorescence, mean of three wells (reading M21, Supplementary Fig. 47 source data): 3.466
Th-T fluorescence, mean of three wells (reading M22, Supplementary Fig. 47 source data): 3.5211
Th-T fluorescence, mean of three wells (reading M23, Supplementary Fig. 47 source data): 3.558
Th-T fluorescence, mean of three wells (reading M24, Supplementary Fig. 47 source data): 3.581
Th-T fluorescence, mean of three wells (reading M25, Supplementary Fig. 47 source data): 3.61
Th-T fluorescence, mean of three wells (reading M26, Supplementary Fig. 47 source data): 3.64
Th-T fluorescence, mean of three wells (reading M27, Supplementary Fig. 47 source data): 3.697
Th-T fluorescence, mean of three wells (reading M28, Supplementary Fig. 47 source data): 3.7304
Th-T fluorescence, mean of three wells (reading M29, Supplementary Fig. 47 source data): 3.755
Th-T fluorescence, mean of three wells (reading M30, Supplementary Fig. 47 source data): 3.765
Th-T fluorescence, mean of three wells (reading M31, Supplementary Fig. 47 source data): 3.799
Th-T fluorescence, mean of three wells (reading M32, Supplementary Fig. 47 source data): 3.833
Th-T fluorescence, mean of three wells (reading M33, Supplementary Fig. 47 source data): 3.798
Th-T fluorescence, mean of three wells (reading M34, Supplementary Fig. 47 source data): 3.8608
Th-T fluorescence, mean of three wells (reading M35, Supplementary Fig. 47 source data): 3.851
Th-T fluorescence, mean of three wells (reading M36, Supplementary Fig. 47 source data): 3.863
Th-T fluorescence, mean of three wells (time course, reading M57): 4.004
Th-T fluorescence, mean of three wells (time course, reading M58): 4.031
Th-T fluorescence, mean of three wells (time course, reading M59): 4.01
Th-T fluorescence, mean of three wells (time course, reading M60): 3.981
Th-T fluorescence, mean of three wells (time course, reading M61): 4.001
Th-T fluorescence, mean of three wells (time course, reading M62): 4.022
Th-T fluorescence, mean of three wells (time course, reading M63): 4.022
Th-T fluorescence, mean of three wells (time course, reading M64): 3.993
Th-T fluorescence, mean of three wells (time course, reading M65): 3.998
Th-T fluorescence, mean of three wells (time course, reading M66): 4.007
Th-T fluorescence, mean of three wells (time course, reading M67): 3.974
Th-T fluorescence, mean of three wells (time-course reading M97, Supplementary Fig. 47 source data): 3.915
Th-T fluorescence, mean of three wells (time-course reading M98, Supplementary Fig. 47 source data): 3.9
Th-T fluorescence, mean of three wells (time-course reading M99, Supplementary Fig. 47 source data): 3.901
Th-T fluorescence, mean of three wells (time-course reading M100, Supplementary Fig. 47 source data): 3.914
Th-T fluorescence, mean of three wells (time-course reading M101, Supplementary Fig. 47 source data): 3.9074
Th-T fluorescence, mean of three wells (time-course reading M102, Supplementary Fig. 47 source data): 3.878
Th-T fluorescence, mean of three wells (time-course reading M103, Supplementary Fig. 47 source data): 3.8886
Th-T fluorescence, mean of three wells (time-course reading M104, Supplementary Fig. 47 source data): 3.914
Th-T fluorescence, mean of three wells (time-course reading M105, Supplementary Fig. 47 source data): 3.865
Th-T fluorescence, mean of three wells (time-course reading M106, Supplementary Fig. 47 source data): 3.9
Th-T fluorescence, mean of three wells (time-course reading M107, Supplementary Fig. 47 source data): 3.909
Th-T fluorescence, mean of three wells (time-course reading M108, Supplementary Fig. 47 source data): 3.872
Th-T fluorescence, mean of three wells (time-course reading M109, Supplementary Fig. 47 source data): 3.882
Th-T fluorescence, mean of three wells (time-course reading M110, Supplementary Fig. 47 source data): 3.8573
Th-T fluorescence, mean of three wells (time-course reading M111, Supplementary Fig. 47 source data): 3.873
Th-T fluorescence, mean of three wells (time-course reading M112, Supplementary Fig. 47 source data): 3.8761
Th-T fluorescence, mean of three wells (time-course reading M113, Supplementary Fig. 47 source data): 3.855
Th-T fluorescence, mean of three wells (time-course reading M114, Supplementary Fig. 47 source data): 3.858
Th-T fluorescence, mean of three wells (time-course reading M115, Supplementary Fig. 47 source data): 3.833
Th-T fluorescence, mean of three wells (time-course reading M116, Supplementary Fig. 47 source data): 3.836
SMILES: C=C1CCC2C3(C)CC(C=C(C)C)OC3CCC2(C)C1Cc1c(OC)oc(C)c(C)c1=O (centres unmarked) [Compound 23]
